Assay results: paper PMC10041525, “New Dual Inhibitors of Bacterial Topoisomerases with Broad-Spectrum Antibacterial Activity and In Vivo Efficacy against Vancomycin-Intermediate Staphylococcus aureus” (Journal of Medicinal Chemistry, 2023)
Read-outs that look alike come from different tables or passages of the source.

Assays:
E. faecium (n = 13) = assay: MIC broth microdilution at IHMA Europe; format: cell-based; conditions: for MIC: Enterococcus faecium, read-out: MIC
E. coli ATCC 25922 = test system: E. coli ATCC 25922; parameters: method as in earlier work; conditions: QC range for E. coli ATCC 25922, ref CLSI; cited from earlier work
S. pneumoniae ATCC 49619 = test system: S. pneumoniae ATCC 49619; parameters: method as in earlier work; conditions: QC range for S. pneumoniae ATCC 49619, ref CLSI; cited from earlier work

CC1(C)S[C@@H]2[C@H](NC(=O)[C@H](N)c3ccccc3)C(=O)N2[C@H]1C(=O)O [Ampicillin, ampicillin]
MIC (E. faecium (n = 13); E. faecium IHMA N° 1764866): > 32 µg/mL
MIC (E. faecium (n = 13); E. faecium IHMA N° 1765436): > 32 µg/mL
MIC (E. faecium (n = 13); E. faecium IHMA N° 1765746): > 32 µg/mL
MIC (E. faecium (n = 13); E. faecium IHMA N° 1893573): > 32 µg/mL
MIC (E. faecium (n = 13); E. faecium IHMA N° 1893846): > 32 µg/mL
MIC (E. faecium (n = 13); E. faecium IHMA N° 1893942): > 32 µg/mL
MIC (E. faecium (n = 13); E. faecium IHMA N° 1894055): > 32 µg/mL
MIC (E. faecium (n = 13); E. faecium IHMA N° 1897027): > 32 µg/mL
MIC (E. faecium (n = 13); E. faecium IHMA N° 1897101): > 32 µg/mL
MIC (E. faecium (n = 13); E. faecium IHMA N° 1904592): > 32 µg/mL
MIC (E. faecium (n = 13); E. faecium IHMA N° 2075051): > 32 µg/mL
MIC (E. faecium (n = 13); E. faecium IHMA N° 2077718): > 32 µg/mL
MIC (E. faecium (n = 13); E. faecium IHMA N° 2083787): > 32 µg/mL
Cumulative % at MIC (E. faecium (n = 13); MIC >32 µg/mL): 100.0%
No. of isolates at MIC (E. faecium (n = 13); MIC >32 µg/mL): 13
MIC, CLSI Range (E. coli ATCC 25922): 2 to 8 µg/mL
MIC, CLSI Range (S. pneumoniae ATCC 49619): 0,06 - 0,25 µg/mL
